Assay results from US20110239332A1, “PROPAGATION OF SWITCHGRASS AND MISCANTHUS” (priority 2008, published 2011).

Tests used:
[1] = system: Miscanthus shoots; experiment: In vitro shoot multiplication of Miscanthus in culture media; format: cell-based, Miscanthus × giganteus; settings: high TDZ (1.65 mg/L) compared with about 0.25 mg/L TDZ, media at 31° C.
Procedure: In propagating Miscanthus stem nodes in culture media, Nielsen used high amounts of Thidiazuron (TDZ) (1.65 mg/L), which is a cost limiting hormone additive in shoot multiplication growth media (Nielsen et. al. 1993; Nielsen et. al. 1995).
Stems of actively growing Miscanthus × giganteus having dormant nodes were harvested and sterilized using 1.5% sodium hypochlorite (25% bleach) solution followed by three rinses using sterile water. Stem segments comprising nodes were cut to 3 cm long and then cut longitudinally down the center of the each stem. The prepared stem portions were then placed under growth conditions of 50 μE of light and a 16 h day. The temperature was 31° C. Stem segments were grown in […] Petri plates for solid culture, however any suitable sterile container can be used for solid or liquid culture. Time between sub-culturing was 14-21 days. Shoots were cut to 3-4 cm in length when sub-culturing.
The media used for the above-described growth conditions comprised MS medium plus vitamins (full strength) (Phytotechnologies™ Product ID-M519), 30 g/L sucrose (87.7 mM), […] MgCl2 (750 mg/L of MgCl2.6H2O), pH 5.6 for semi-solid media, […], and 6 g/L agar. The following hormones were added after autoclaving of the media. […]

[2] = system: switchgrass shoots; settings: 8 weeks (12 weeks to plant), 29° C., BAP as only plant hormone; cited from earlier work
[3] = system: switchgrass shoots; experiment: In vitro shoot multiplication of switchgrass in culture media; format: cell-based, Panicum virgatum L.
Procedure: A drawback of the use of known propagation conditions is a limited shoot multiplication rate. […] Alexandrova described how to multiply up to 500 shoots from one plant in 8 weeks (12 weeks to plant) at 29° C. and used only one plant hormone Benzylaminopurine (BAP) for multiplication of switchgrass shoots (Alexandrova et al. 1996). However, it has been discovered that 31° C. is a preferable temperature for multiplication of switchgrass shoots. It has also been discovered that liquid medium is preferable for increased multiplication. Applicants optimized multiplication of Switchgrass shoots with a combination of several plant hormones Benzylaminopurine+Naphthaleneacetic acid+Thidiazuron+Paclobutrazol (BAP+NAA+TDZ+PBZ).
It was discovered that an increase in the amount of 6 micro-elements restored growth to shoots and prevented shoot death and, in particular, an increase in the amount of CuSO4.7H2O added to the media increased multiplication rates increased up to about 7× every 3 weeks. MS media contains 0.025 mg/L CuSO4.7H2O. An increase of up to about 10× every 3 weeks in multiplication rate was achieved when shoots were broken apart every 2-3 weeks. […]

For `O=C(Nc1ccccc1)Nc1cnns1` [TDZ, Thidiazuron], the “shoot thickness and shoot production” value [1] was “multiplied shoots were thinner and shoot production was less”.

For `c1ccc(CNc2ncnc3[nH]cnc23)cc1` [BAP, Benzylaminopurine], the “shoots multiplied from one plant” value [2] is listed as “up to 500 shoots”.

In the case of `O.O.O.O.O.O.O.O=S(=O)([O-])[O-].[Cu+2]` [CuSO4.7H2O], the shoot multiplication rate ([3]; increased CuSO4.7H2O, shoots broken apart every 2-3 weeks) is reported as “about 10 × every 3 weeks” and the shoot multiplication rate ([3]; increased amount of CuSO4.7H2O added to the media (MS media contains 0.025 mg/L)) is reported as “about 7 × every 3 weeks”.
